Measured values reported in ChEMBL document CHEMBL3259674, “Structure-Activity Relationship of Semicarbazone EGA Furnishes Photoaffinity Inhibitors of Anthrax Toxin Cellular Entry” (ACS Med Chem Lett, 2014).
Activity calls are given as the source filed them. The calls are words filed in the database; no cut-off is given here.

These molecules were tested against T1, Antrax lethal toxin (Bacillus anthracis) (UniProt P15917+P13423) (assay: Irreversible inhibition of Bacillus anthracis lethal toxin-induced mouse RAW264.7 cell death at 12.5 uM preincubated for 1 hr followed by UV irradiation measured after 5 mins). Details: not given.
Format: protein-complex assay
In the case of `Cc1cccc(C)c1NC(=O)N/N=C/c1ccc(N=[N+]=[N-])cc1F`, the inhibition is reported as “inactive”.

The molecules below were run against T1, Antrax lethal toxin (Bacillus anthracis) (assay: Irreversible inhibition of Bacillus anthracis lethal toxin-induced mouse RAW264.7 cell death at 25 uM preincubated for 1 hr followed by UV irradiation measured after 5 mins). Details: not given.
Format: protein-complex assay
`Cc1cccc(C)c1NC(=O)N/N=C/c1ccc(N=[N+]=[N-])cc1` was tested, and the inhibition was “Active”.
In the case of `Cc1cccc(C)c1NC(=O)N/N=C/c1c(F)c(F)c(N=[N+]=[N-])c(F)c1F`, the inhibition is reported as “Active”.

These molecules were tested against T1, Antrax lethal toxin (Bacillus anthracis) (assay: Reversible inhibition of Bacillus anthracis lethal toxin-induced mouse RAW264.7 cell death at 12.5 uM preincubated for 1 hr followed by compound washout measured 4 hrs post lethal toxin challenge). Details: not given.
Format: protein-complex assay
With `Cc1cccc(C)c1NC(=O)N/N=C/c1ccc(N=[N+]=[N-])cc1F` the inhibition was “Active”.

Each molecule was assayed against T1, Antrax lethal toxin (Bacillus anthracis) (assay: Reversible inhibition of Bacillus anthracis lethal toxin-induced mouse RAW264.7 cell death at 25 uM preincubated for 1 hr followed by compound washout measured 4 hrs post lethal toxin challenge). Details: not given.
Format: protein-complex assay
For `Cc1cccc(C)c1NC(=O)N/N=C/c1ccc(N=[N+]=[N-])cc1`, the inhibition was “Active”.
With `Cc1cccc(C)c1NC(=O)N/N=C/c1c(F)c(F)c(N=[N+]=[N-])c(F)c1F` the inhibition was “Active”.

These molecules were tested against T1, Antrax lethal toxin (Bacillus anthracis). Details: RAW264.7, at 25 µM.
In the case of `Cc1cccc(C)c1NC(=S)N/N=C/c1c(F)cc(Br)cc1F`, the inhibition is reported as “inactive”.
`COc1cccc(/C=N/NC(=O)Nc2c(C)cccc2C)c1OC` was tested, and the inhibition was “inactive”.
In the case of `Cc1ccc(NC(=O)N/N=C/c2ccc(Br)cc2)c(C)c1`, the inhibition is reported as “inactive”.
In the case of `Cc1cccc(C)c1NC(=S)N/N=C/c1ccc(Br)cc1F`, the inhibition is reported as “inactive”.
`Cc1cccc(C)c1NC(=O)N/N=C/c1ccco1` was tested, and the inhibition was “inactive”.
With `Cc1cccc(C)c1NC(=O)N/N=C/c1ccccc1` the inhibition was “inactive”.
`COc1cc(OC)c(/C=N/NC(=O)Nc2c(C)cccc2C)c(OC)c1` was tested, and the inhibition was “inactive”.
For `Cc1cccc(C)c1NC(=O)N/N=C/c1cccc(C(F)(F)F)c1Cl`, the inhibition was “inactive”.
`Cc1ccccc1/C=N/NC(=O)Nc1c(C)cccc1C` was tested, and the inhibition was “inactive”.
`O=C(N/N=C/c1ccc(Cl)cc1)Nc1ccccc1` was tested, and the inhibition was “inactive”.
For `Cc1cccc(C)c1NC(=O)N/N=C/c1ccncc1`, the inhibition was “inactive”.
With `C#CCN(/N=C/c1ccc(N=[N+]=[N-])cc1)C(=O)Nc1c(C)cccc1C` the inhibition was “inactive”.
For `CC(C)(C)NC(=O)N/N=C/c1ccc(Br)cc1`, the inhibition was “inactive”.
For `Cc1cccc(C)c1NC(=O)NN`, the inhibition was “inactive”.
In the case of `Cc1cccc(C)c1NC(=O)N/N=C/c1ccc(NS(C)(=O)=O)cc1`, the inhibition is reported as “inactive”.
